Experimental data published in publication PMC8198792, “Prediction of Anticancer Peptides with High Efficacy and Low Toxicity by Hybrid Model Based on 3D Structure of Peptides” (International Journal of Molecular Sciences, 2021).
Bridge positions count the residues as written; N and C are the ends. Peptide text beside a SMILES is read from it.

How the values were obtained:
[1] = tested on: lung cancer cell line (A549); format: cell-based, human
Excerpt: (§1) Five peptides were randomly selected from the candidate ACPs and synthesized by Changzhou Kanglong Biotech Ltd (Changzhou, China). using 9-fuorenylmethoxy carbonyl (FMOC) solid phase synthesis technology. The synthetic peptide was identified by mass spectrometry (MS), and the purity >95% by high performance liquid chromatography (HPLC). Human breast cancer cell line (MCF7), lung cancer cell line (A549), cervical cancer cell line (HeLa), colorectal adenocarcinoma cell line (LoVo) and human embryonic kidney cells (293T) were preserved in our laboratory. At 37 °C under 5/95% CO2/air condition, all cell lines were cultured in Dulbecco’s modified Eagle medium (DMEM) supplemented with 10% (v/v) fetal bovine serum (FBS, Gibco, Carlsbad, CA, USA) and 1% (v/v) penicillin/streptomycin (Sangon Biotech, Shanghai, China).
(§2) Human tumor cell lines MCF7, A549, HeLa and LoVo were used as experimental materials to detect the anticancer activity of peptides by MTT assay. In addition, human embryonic kidney cells 293T were also included in the experiment to examine the safety of the peptide against non-cancerous cells. […] Untreated cells as negative control group incubated with corresponding medium for 24 h. Subsequently, 10 uL, 5 mg/mL MTT (Sangon Biotech, Shanghai, China) solution was added to each well and incubated for 4 h at 37 °C. After the medium was discarded, 150 μL DMSO was added to each well for 10 min to dissolve formazan crystals. Absorbance was measured at 570 and 630 nm using a multiwall plate reader and the inhibition rate was expressed as the mean ± standard deviation (SD) of the triplicate data.

[2] = tested on: cervical cancer cell line (HeLa); format: cell-based, human; settings: MTT assay, 6000 cells per well, peptides 0.5-128 μM for 24 h, triplicate, absorbance 570 and 630 nm; read-out: IC50 (μM) HeLa
Excerpt: as §1, §2

[3] = tested on: colorectal adenocarcinoma cell line (LoVo); format: cell-based, human; settings: MTT assay, 6000 cells per well, peptides 0.5-128 μM for 24 h, triplicate, absorbance 570 and 630 nm; read-out: IC50 (μM) LoVo
Excerpt: as §1, §2

[4] = tested on: Human breast cancer cell line (MCF7); format: cell-based; settings: MTT assay, 6000 cells per well, peptides 0.5-128 μM for 24 h, triplicate, absorbance 570 and 630 nm; read-out: IC50 (μM) MCF7
Excerpt: as §1, §2

[5] = tested on: 2% sheep red blood cells (SRBC); assay: Hemolysis assay; format: cell-based
Procedure: The 2% sheep red blood cells (SRBC) were purchased from Nanjing Senbeijia Biological Technology Co., Ltd (Nangjing, China). A total of 4 mL of 2% SRBC was taken, rinsed twice with 4 mL of PBS by centrifugation for 5 min at 3000 rpm and the precipitates were resuspended in 4 mL of PBS. We added 100 μL of 2% SRBC to each well of the 96-well plate and then added 100 μL peptide solutions of different concentrations (2, 4, 8, 16, 32, 64, 128 and 256 μM) in triplicate at 37 °C for 1 h. 100 μL of PBS buffer and 100 uL of Triton X-100 0.1% (w/v) were mixed with SRBC as negative and positive controls, respectively. All samples were centrifuged at 3000 rpm for 5 min, 100 μL supernatant was collected and transferred to a new 96-well plate, and its absorbance was measured at 540 nm. The calculation formula of hemolysis rate is as follows. (5) % Hemolysis=absorbancesample-absorbancenegative/absorbancepositive-absorbancenegative×100

[6] = tested on: human embryonic kidney cells (293T); assay: MTT assay on non-cancerous cells, 293T; format: cell-based
Excerpt: as §1, §2

## CC[C@H](C)[C@H](NC(=O)[C@H](CC(C)C)NC(=O)[C@H](CC(C)C)NC(=O)[C@H](CC(=O)O)NC(=O)[C@H](CCCCN)NC(=O)[C@@H](NC(=O)[C@H](C)NC(=O)CNC(=O)[C@H](CC(C)C)NC(=O)[C@@H](NC(=O)CN)C(C)C)C(C)C)C(=O)NCC(=O)N[C@@H](C)C(=O)NCC(=O)N[C@@H](CCCCN)C(=O)N[C@@H](CO)C(=O)N[C@@H](C)C(=O)N[C@@H](C)C(=O)N[C@@H](CCC(N)=O)C(=O)N[C@@H](CO)C(=O)N[C@H](C(=O)N[C@@H](CC(C)C)C(=O)N[C@@H](CCCCN)C(=O)N[C@H](C(=O)N[C@@H](CC(C)C)C(=O)N[C@@H](CO)C(=O)N[C@H]1CSSC[C@@H](C(=O)O)NC(=O)[C@H](CC(=O)O)NC(=O)[C@H](CC(N)=O)NC(=O)[C@H](CO)NC(=O)[C@H](CC(C)C)NC(=O)[C@H](CCCCN)NC1=O)[C@@H](C)O)C(C)C [Odorranain-C1] (H-GVLGAVKDLLIGAGKSAAQSVLKTLSCKLSNDC-OH; disulfide 27-33)
[1]; MTT assay, 6000 cells per well, peptides 0.5-128 μM for 24 h, triplicate, absorbance 570 and 630 nm, read-out: IC50 (μM) A549
  IC50: 27.3 µM
[1]; MTT, 24 h, anticancer activity when IC50 less than 50 μM
  killing effects on lung cancer cell A549 (in words): effective killing effects
[2]
  IC50: 52.8 µM
[3]
  IC50: 55.2 µM
[4]
  IC50: 41.2 µM
[5]; hemolytic rate of 100 μM peptides more than 10% as the classification standard, 2% sheep erythrocytes
  hemolysis (in words): no hemolysis
[5]; peptide 2 μM, 2% SRBC in PBS, 37 °C, 1 h, absorbance 540 nm, triplicate
  Hemolytic effect on 2% sheep erythrocytes, peptide concentration 2 μM: − (The “−” symbol indicates the hemolysis rate of less than 10% at peptides concentration of 100 μM)
[5]; peptide 4 μM, 2% SRBC in PBS, 37 °C, 1 h, absorbance 540 nm, triplicate
  Hemolytic effect on 2% sheep erythrocytes, peptide concentration 4 μM: − (The “−” symbol indicates the hemolysis rate of less than 10% at peptides concentration of 100 μM)
[5]; peptide 8 μM, 2% SRBC in PBS, 37 °C, 1 h, absorbance 540 nm, triplicate
  Hemolytic effect on 2% sheep erythrocytes, peptide concentration 8 μM: − (The “−” symbol indicates the hemolysis rate of less than 10% at peptides concentration of 100 μM)
[5]; peptide 16 μM, 2% SRBC in PBS, 37 °C, 1 h, absorbance 540 nm, triplicate
  Hemolytic effect on 2% sheep erythrocytes, peptide concentration 16 μM: − (The “−” symbol indicates the hemolysis rate of less than 10% at peptides concentration of 100 μM)
[5]; peptide 32 μM, 2% SRBC in PBS, 37 °C, 1 h, absorbance 540 nm, triplicate
  Hemolytic effect on 2% sheep erythrocytes, peptide concentration 32 μM: − (The “−” symbol indicates the hemolysis rate of less than 10% at peptides concentration of 100 μM)
[5]; peptide 64 μM, 2% SRBC in PBS, 37 °C, 1 h, absorbance 540 nm, triplicate
  Hemolytic effect on 2% sheep erythrocytes, peptide concentration 64 μM: − (The “−” symbol indicates the hemolysis rate of less than 10% at peptides concentration of 100 μM)
[5]; peptide 128 μM, 2% SRBC in PBS, 37 °C, 1 h, absorbance 540 nm, triplicate
  Hemolytic effect on 2% sheep erythrocytes, peptide concentration 128 μM: − (The “−” symbol indicates the hemolysis rate of less than 10% at peptides concentration of 100 μM)
[5]; peptide 256 μM, 2% SRBC in PBS, 37 °C, 1 h, absorbance 540 nm, triplicate
  Hemolytic effect on 2% sheep erythrocytes, peptide concentration 256 μM: − (The “−” symbol indicates the hemolysis rate of less than 10% at peptides concentration of 100 μM)
[6]; low toxicity when the IC50 value exceeded 50 μM, MTT, 24 h
  toxicity to 293T cells (in words): certain toxicity
[6]; non-cancerous cells, MTT assay, 6000 cells per well, peptides 0.5-128 μM for 24 h, triplicate, absorbance 570 and 630 nm, read-out: IC50 (μM) 293T
  IC50: 48.7 µM
